PMC9196629, “Synthesis, Characterization and Antitumor Mechanism Investigation of Heterometallic Ru(Ⅱ)-Re(Ⅰ) Complexes” (Frontiers in Chemistry, 2022)

Key:
[1] = test system: HeLa cells; assay: Intracellular ROS by H2DCFDA staining; type: cell-based, human; settings: 6 h, confocal microscopy
Protocol: ROS are natural by-product of normal oxygen metabolism and play an important role in cellular signaling transduction and homeostasis in vivo ([Casas et al., 2020]). It has been shown that the excessive production of ROS may cause oxidative stress and lead to cell death ([Jia et al., 2020]). Herein, cells were treated with RuRe-1 and RuRe-2 for 6 h and then stained with 2′,7′-dichlorodihydrouorescein diacetate (H2DCFDA). H2DCFDA is non-fluorescent and can be oxidized by intracellular ROS to highly fluorescent 2′,7′-dichlorofluorescein (DCF) ([Abdel Hadi et al., 2021]). The intensity of green fluorescence can respond to the accumulation of intracellular ROS.
FIGURE 7 RuRe-1 and RuRe-2 induced the elevation of intracellular ROS levels examined by confocal microscopy with H2DCFDA staining (λ ex = 488 nm, λ em = 530 ± 20 nm). The incubation time of the compounds was 6 h. Scale bar: 20 μm.
Measurement of intracellular ROS. After HeLa cells were adhered to the confocal dishes, the medium was replaced with medium containing the indicated concentrations of RuRe-1 and RuRe-2 for 6 h. Subsequently, the medium was aspirated and cells were washed three times with serum-free DMEM. Then, cells were co-incubated with fluorescent dye H2DCFDA (10 μM) at 37 °C for 10 mins and washed three times with PBS and visualized by a confocal microscope (λex = 488 nm, λem = 530 ± 20 nm).

[2] = test system: HeLa cells; assay: Wound healing assay (cell migration); type: cell-based, human; settings: 36 h, control 15%
Protocol: Metastasis is a major obstacle to cancer treatment, which will cause the failure of cancer treatment and the death of patients ([Fouani et al., 2017]). Cell migration is the main feature of metastasis. Herein, the effects of RuRe-1 and RuRe-2 on inhibiting cell migration were studied through wound healing. […] After 36 h cultivated, both RuRe-1 and RuRe-2 inhibited cell migration, and the wound closure rates were 3% and 2%, respectively, which were lower than 15% of the control group (Figure 8B).
FIGURE 8 (A) Wound healing of HeLa cells after treated with RuRe-1 (3.1 μM) and RuRe-2 (2.5 μM) for 0, 24, and 36 h. (B) Quantitative data of wound-healing. Wound closure (%) = [1−(width at indicated time)/(width at 0 h)] × 100%. (C) Inhibition of colony formation by RuRe-1 and RuRe-2. (D) Quantitative data of colony formation assays.
Wound healing assay. When reaching 80%–90% confluence, the cells were crossed with a 200 μL pipette tip, then photographed under an inverted microscope to record the width of the scratch. After the cells recovered for 1 h, the serum-free medium containing the indicated concentrations of RuRe-1 and RuRe-2 were added and incubated for a specific time (24 h, 36 h), meantime, the width of the scratch was recorded.

[3] = Stability in human serum albumin (HSA) solution by UV-Vis spectroscopy; type: physicochemical; settings: 10 μM, HSA solution, 0, 24 and 48 h
Protocol: The stabilities of RuRe-1 and RuRe-2 in PBS and human serum albumin (HSA) were tested through UV–Vis spectroscopy.
Supplementary Figure 12. UV-Vis absorption spectra of RuRe-1 (10 μM), RuRe-2 (10 μM), Ru-1 (10 μM), Ru-2 (10 μM) and Re-1 (10 μM) in PBS (A) and HSA (B) solution collected at 0, 24, and 48 h, respectively.

[4] = test system: A549 (human lung cancer cells); assay: MTT cytotoxicity assay; type: cell-based; settings: 48 h incubation, mean ± SD
Protocol: (§1) The anticancer activities of RuRe-1 and RuRe-2 against four cancer cell lines: HeLa (human cervical cancer cells), HepG2 (human hepatocellular carcinoma), A549 (human lung cancer cells), A549R (cisplatin-resistant A549) and one normal cell line LO2 (human normal liver cells) were determined by 3-(4,5-dimethylthiazole)-2,5-diphenyltetraazolium bromide (MTT) assay, while the mononuclear complexes Ru-1, Ru-2, Re-1 and cisplatin were selected as controls. […] And the in vitro antiproliferative efficacies of the compounds against HeLa cells were in the following order: RuRe-2 > RuRe-1 > Re-1 > cisplatin > Ru-1 > Ru-2. […] The anticancer activity of the mononuclear rhenium complex Re-1 was between 5.6 μM and 8.0 μM, which contributed the most to the antitumor activities of the heteronuclear Ru(II)-Re(Ⅰ) metal complexes.
(§2) Cell lines and culture conditions. HeLa, HepG2, A549, A549R and LO2 cells were purchased from Nanjing KeyGen Biotech., and cultured in DMEM or RPMI 1640 complete medium at 37 ℃ with 5% CO2 atmosphere.
(§3) In vitro cytotoxicity assay. The anti-tumor activity of mononuclear complexes Ru-1, Ru-2, Re-1 and heteronuclear RuRe-1 and RuRe-2 were determined by MTT (5 mg/mL) assay. Cells were placed in 96-well plates and cultured for 24 h at 37 ℃ in a 5% CO2 incubator. After replacing the culture medium with fresh medium containing RuRe-1 or RuRe-2 at the indicated concentration, cells were cultured for 48 h. 20 μL MTT was added to each well 4 h before the end of the incubation. Subsequently, the liquid in the cell wells was poured out and 150 μL/well DMSO was added to dissolve the MTT-formazan crystals. The absorbance of living cells at 570 nm was detected.

[5] = test system: LO2 (human normal liver cells); assay: MTT cytotoxicity assay; type: cell-based; settings: 48 h incubation, mean ± SD
Protocol: as §1, §2, §3

[6] = test system: HepG2 (human hepatocellular carcinoma); assay: MTT cytotoxicity assay; type: cell-based; settings: 48 h incubation, mean ± SD
Protocol: as §1, §2, §3

[7] = test system: HeLa (human cervical cancer cells); assay: MTT cytotoxicity assay; type: cell-based; settings: 48 h incubation, mean ± SD
Protocol: as §1, §2, §3

Compound	intracellular ROS levels (H2DCFDA) [1]	wound closure rate ([2]; 3.1 μM) [%]	stability in HSA (UV-Vis spectral characteristics and absorption peaks) [3]	IC50 [4] [µM]	IC50 [5] [µM]	IC50 [6] [µM]	IC50 [7] [nM]	wound closure rate ([2]; 2.5 μM) [%]
F[P-](F)(F)(F)(F)F.F[P-](F)(F)(F)(F)F.F[P-](F)(F)(F)(F)F.[C-]#[O+].[C-]#[O+].[C-]#[O+].[Re+].[Ru+2].c1ccc(-c2ccccn2)nc1.c1ccc(-c2ccccn2)nc1.c1ccc(-c2ccnc3c2ccc2c(-c4ccccc4)ccnc23)cc1.c1cnc2c(c1)c1nc(-c3ccncc3)[nH]c1c1cccnc12 [RuRe-1, [Ru(bpy)2LRe(CO)3(DIP)](PF6)3]	increase in intracellular ROS levels in a concentration-dependent manner	3	no significant change	11.8 ± 0.4	25.1 ± 0.7	10 ± 0.8	3100 ± 800	
F[P-](F)(F)(F)(F)F.F[P-](F)(F)(F)(F)F.F[P-](F)(F)(F)(F)F.[C-]#[O+].[C-]#[O+].[C-]#[O+].[Re+].[Ru+2].c1ccc(-c2ccnc3c2ccc2c(-c4ccccc4)ccnc23)cc1.c1cnc2c(c1)c1nc(-c3ccncc3)[nH]c1c1cccnc12.c1cnc2c(c1)ccc1cccnc12.c1cnc2c(c1)ccc1cccnc12 [RuRe-2, [Ru(phen)2LRe(CO)3(DIP)](PF6)3]	increase in intracellular ROS levels in a concentration-dependent manner		no significant change	11.2 ± 0.9	28.1 ± 1.1	12.5 ± 0.9	2500 ± 1300	2
